Counter-ions that a name gives are not always drawn.
How the values were obtained:
[1] = Crystal particle size distribution and average particle size (SHIMADZU SALD1100, medium diisopropyl ether); format: physicochemical; conditions: for average particle size: average diameter upon conversion of particle volume into sphere; for average particle size / crystal particle size distribution: not less than 10 μm and less than 20 μm / crystal particle size distribution: not less than 20 μm and less than 40 μm / crystal particle size distribution: less than 5 μm / crystal particle size distribution: not less than 40 μm: hydrobromide; for crystal particle size distribution: not less than 10 μm and less than 20 μm: fraction of crystals with 10 μm ≦ D < 20 μm; for crystal particle size distribution: not less than 20 μm and less than 40 μm: fraction of crystals with 20 μm ≦ D < 40 μm; for crystal particle size distribution: less than 5 μm: fraction of crystals with D < 5 μm; for crystal particle size distribution: not less than 40 μm: fraction of crystals with D ≧ 40 μm
Description: The average particle size in the present invention is an average diameter upon conversion of the volume of the crystal particles into sphere. The powder X-ray crystal diffraction and average particle size were measured in the following Reference Example, Examples and Comparative Example, according to the following methods. Average particle size: SHIMADZU CORPORATION SALD1100 (medium:diisopropyl ether)

[2] = Bulk density and tap density of crystals; format: physicochemical

Row | average particle size [1] | crystal particle size distribution: not less than 10 μm and less than 20 μm [1] | crystal particle size distribution: not less than 20 μm and less than 40 μm [1] | crystal particle size distribution: less than 5 μm [1] | crystal particle size distribution: not less than 40 μm [1] | bulk density [2] | tap density [2] | fine crystals having a particle size of less than 5 μm (of the total amount) ([1]; crystallized according to the method of U.S. Pat. No. 4,650,884) | SMILES
1 | 12.9 μm | 29.1% | 27.0% | 17.1% | 4.6% |  |  |  | CN(C)CCCC1(c2ccc(F)cc2)OCc2cc(C#N)ccc21 (single isomer, unassigned) [Example 1, citalopram hydrobromide]
2 | 23.8 μm | 20.9% | 31.7% | 9.6% | 25.5% |  |  |  | CN(C)CCCC1(c2ccc(F)cc2)OCc2cc(C#N)ccc21 (single isomer, unassigned) [Example 4, citalopram hydrobromide]
3 | 6.3 μm | 23.9% | 4.0% | 41.9% | 0% |  |  |  | CN(C)CCCC1(c2ccc(F)cc2)OCc2cc(C#N)ccc21 (centres unmarked) [Comparative Example 1, citalopram hydrobromide, reference compound]
4 | 15.1 μm | 10 μm ≦ D < 20 μm 26.9% | 20 μm ≦ D < 40 μm 31.0% | D < 5 μm 15.6% | D ≧ 40 μm 7.2% (shown |  |  |  | CN(C)CCCC1(c2ccc(F)cc2)OCc2cc(C#N)ccc21 (centres unmarked) [Example 5, citalopram hydrobromide]
5 |  |  |  |  |  |  |  | 41.9% | CN(C)CCCC1(c2ccc(F)cc2)OCc2cc(C#N)ccc21 (centres unmarked) [citalopram hydrobromide, reference compound]

Second part, the molecule before the results:

Row | SMILES | average particle size [1] | crystal particle size distribution: not less than 10 μm and less than 20 μm [1] | crystal particle size distribution: not less than 20 μm and less than 40 μm [1] | crystal particle size distribution: less than 5 μm [1] | crystal particle size distribution: not less than 40 μm [1] | bulk density [2] | tap density [2] | fine crystals having a particle size of less than 5 μm (of the total amount) ([1]; crystallized according to the method of U.S. Pat. No. 4,650,884)
6 | CN(C)CCCC1(c2ccc(F)cc2)OCc2cc(C#N)ccc21 (single isomer, unassigned) [Example 6, citalopram hydrobromide] | 14.6 μm | 35.5% | 29.3% | 12.6% | 2.4% | 0.2 g/mL | 0.42 g/mL | 
7 | CN(C)CCCC1(c2ccc(F)cc2)OCc2cc(C#N)ccc21 (centres unmarked) [Example 2, citalopram hydrobromide] | 7.8 μm | 25.7% | 12.2% | D < 5 μm 31.4% | D ≧ 40 μm 0.3% |  |  | 
8 | CN(C)CCCC1(c2ccc(F)cc2)OCc2cc(C#N)ccc21 (centres unmarked) [Example 3, citalopram hydrobromide] | 11.0 μm | 31.0% | 21.6% | D < 5 μm 19.6% | D ≧ 40 μm 1.6% |  |  | 
